Results: patent US20240188569A1, “NEW YEAST STRAIN AND ITS USES FOR THE CONTROL OF PHYTOPATHOGENS” (AGROVENTURES LLC, priority 2021, published 2024)

System: PT22AV
Experiment: Minimum inhibitory concentration of fungicides in NYDA agar
Conditions: resistance level of PT22AV to the fungicide

N#Cc1c[nH]cc1-c1cccc2c1OC(F)(F)O2 [Fludioxonil]
Resistance level: Resistant
